Laboratory results published in patent publication US8288410B2, “3-substituted quinolinium and 7H-indolo[2,3-c]quinolinium salts as new antiinfectives” (Florida Agricultural and Mechanical University, priority 2008, dated 2012).
Where a name gives a salt, the structure may show the parent alone.

Assays:
[1] = system: Candida albicans ATTC 90028; test: Antifungal susceptibility testing, Candida albicans; format: cell-based; conditions: for IC50: ATTC90028, Table 2, read-out: Ca IC50; for MFC: ATTC90028, Table 2, read-out: Ca MFC; for MIC: ATTC90028, Table 2, read-out: Ca MIC; for Ca IC50 / Ca MFC / Ca MIC: Table 2
In short: (§1)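 Modified NCCLS broth microdilution, samples serially diluted from 20 μg/mL top concentration, inocula per 0.5 McFarland (C. albicans in SDB or RPMI 1640; C. neoformans in SDB; A. fumigatus in YM broth or RPMI-1640 + 5% Alamar Blue). IC50 from percent growth versus concentration; MIC read visually as lowest concentration without detectable growth.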

[2] = system: Vero Cells; test: Cytotoxicity, Vero cells; format: cell-based; conditions: Table 2
[3] = system: MRSA; test: Antibacterial susceptibility testing, MRSA; format: cell-based, methicillin resistant Staphylococcus aureus; conditions: for IC50 / MIC: Staphylococcus aureus; for IC50: Table 2, read-out: MRSA IC50; for MIC: Table 2, read-out: MRSA MIC; for MRSA IC50 / MRSA MFC / MRSA MIC: Table 2
In short: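 MRSA, sourced from the American Type Culture Collection, was tested for susceptibility with a modified National Committee for Clinical Laboratory Standards method. DMSO sample solutions were serially diluted in saline and placed in duplicate in 96 well microplates. Broth-diluted bacterial suspensions, standardized to 0.5 McFarland, brought each well to 200 μL, with the highest test concentration at 20 μg/mL.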

[4] = system: Aspergillus fumigatus ATCC 90906; test: Antifungal susceptibility testing, Aspergillus fumigatus; format: cell-based; conditions: for IC50: ATCC90906, read-out: A fu IC50; for IC50 / A fu IC50: Table 2, Aspergillus fumigatus
In short: as §1

[5] = system: Cryptococcus neoformans ATCC 90113; test: Antifungal susceptibility testing, Cryptococcus neoformans; format: cell-based; conditions: for IC50: ATCC90113, Table 2, read-out: Cn IC50; for MFC: ATCC90113, Table 2, read-out: Cn MFC; for MIC: ATCC90113, Table 2, read-out: Cn MIC; for Cn IC50 / Cn MFC / Cn MIC: Table 2
In short: as §1

IC50 [1] [µg/mL] | MIC [1] [µg/mL] | melting point [°C] | IC50 [3] [µg/mL] | MIC [3] [µg/mL] | IC50 [4] [µg/mL] | IC50 [5] [µg/mL] | MIC [5] [µg/mL] | SMILES | MFC [1] [µg/mL] | TC50 Vero Cells [2] [µg/mL] | A fu MFC [4] [µg/mL] | A fu MIC [4] [µg/mL] | MFC [5] [µg/mL] | Ca IC50 [1] [µg/mL] | Ca MFC [1] [µg/mL] | Ca MIC [1] [µg/mL] | MRSA IC50 [3] [µg/mL] | MRSA MFC [3] [µg/mL] | MRSA MIC [3] [µg/mL] | A fu IC50 [4] [µg/mL] | also measured
3.5 | 10 | 124 to 125 | 1.5 | 5 | 0.9 | 1.5 | 2.5 | C[n+]1cccc(N(CCCCCC2CCCCC2)c2ccccc2)c1 [JRE-4-1-1] | > 20 | 8.3 | 1.3 | 1.3 | 5 | – | – | – | – | – | – | – | –
15 | 50 | 182 to 183 | 1.5 | 3.1 | 10 | 4 | 6.3 | Clc1ccc(Nc2cc3ccccc3[n+](CCCCCc3ccccc3)c2)cc1 [JRE-2-89-1] | > 20 | >25 | – | 50 | 13 | – | – | – | – | – | – | – | –
– | – | 156 to 158 | – | – | – | – | – | c1ccc(Nc2cc3ccccc3[n+](CCCCCC3CCCCC3)c2)cc1 (as salt: iodide) [JRE-3-19-1] | – | – | – | – | – | – | – | – | – | – | – | – | –
0.6 | 1.6 | – | 0.45 | 0.78 | 1 | 0.85 | 1.6 | C[n+]1cccc(N(CCCCCC2CCCCC2)c2ccc3ccccc3c2)c1 [EVK-III-002] | 13 | 6.0 | 6.3 | 1.6 | 1.6 | – | – | – | – | – | – | – | –

More lines, now with the values behind:

SMILES | IC50 [1] [µg/mL] | MIC [1] [µg/mL] | melting point [°C] | IC50 [3] [µg/mL] | MIC [3] [µg/mL] | IC50 [4] [µg/mL] | IC50 [5] [µg/mL] | MIC [5] [µg/mL] | MFC [1] [µg/mL] | TC50 Vero Cells [2] [µg/mL] | A fu MFC [4] [µg/mL] | A fu MIC [4] [µg/mL] | MFC [5] [µg/mL] | Ca IC50 [1] [µg/mL] | Ca MFC [1] [µg/mL] | Ca MIC [1] [µg/mL] | MRSA IC50 [3] [µg/mL] | MRSA MFC [3] [µg/mL] | MRSA MIC [3] [µg/mL] | A fu IC50 [4] [µg/mL] | also measured
FC(F)(F)c1ccccc1Sc1cc2ccccc2[n+](CCCCCc2ccccc2)c1.[I-] | – | – | 227 to 229 | – | – | – | – | – | – | – | – | – | – | – | – | – | – | – | – | – | –
C[n+]1cc(N(CCCCCC2CCCCC2)c2cccc(Cl)c2)cc2ccccc21.[I-] [JRE-4-3-1] | – | – | – | – | – | – | – | – | – | >10 | 10 | 2.5 | – | 0.90 | 10 | 2.5 | 0.80 | 2.5 | 1.3 | 1.0 | Cn IC50 [5]: 0.85 µg/mL; Cn MFC [5]: 5.0 µg/mL; Cn MIC [5]: 1.3 µg/mL
C[n+]1cc(N(CCCCCC2CCCCC2)c2ccc(C(F)(F)F)cc2)cc2ccccc21.[I-] [JRE-3-20-1] | – | – | – | – | – | – | – | – | – | 25 | 6.3 | 3.1 | – | 0.65 | 3.1 | 1.6 | 0.40 | 1.6 | 0.78 | 1.0 | Cn IC50 [5]: 0.65 µg/mL; Cn MFC [5]: 3.1 µg/mL; Cn MIC [5]: 1.6 µg/mL
Clc1cccc(Nc2cc3ccccc3[n+](CCCCCC3CCCCC3)c2)c1.[I-] [JRE-3-88-1] | – | – | – | – | – | – | – | – | – | 12.5 | – | 6.3 | – | 2.0 | 13 | 6.3 | 0.55 | 1.6 | 0.78 | 3.5 | Cn IC50 [5]: 2.0 µg/mL; Cn MFC [5]: 50 µg/mL; Cn MIC [5]: 3.1 µg/mL
